Test results as given in PMC7493195 (Journal of medicinal chemistry, 2020).
Values belong to the molecule of their own block, whether it stands above or below them.

Assays:
kinases = conditions: cited from earlier work
SRC = SRC (Homo sapiens, UniProt P12931); assay: Z’LYTE / LanthaScreen kinase assay; format: biochemical
FGFR1 = FGFR1 (Homo sapiens, UniProt P11362); assay: Z’LYTE / LanthaScreen kinase assay; format: biochemical
p-SRC^Y416 [1] = conditions: 3 doses of 5 mg/kg IP, 2 and 4 h after last dose
[2] = Stability in mouse liver microsomes; format: in vitro ADME
MEK1/2 and ERK1/2 = assay: Cellular target engagement, TL13–68 competition pulldown, MEK1/2 and ERK1/2; format: cell-based; conditions: H1975 and HCC827 cells, 1 μM, 2 h
p-SRC^Y416 [3] = conditions: H1975, 1 μM, 2 h, then 0, 2, 4 h postwashout
p-SRC^Y416 [4] = conditions: H1975 and HCC827 cells, 1 μM, 2 h
[5] = test system: MDA-MB-231, H1975 and HCC827 cells; conditions: 72 h, three cell lines
[6] = test system: panel of 468 human kinases; conditions: 1 μM, 468 kinases, cited from earlier work

FGFR1, sequence (P11362 22-822): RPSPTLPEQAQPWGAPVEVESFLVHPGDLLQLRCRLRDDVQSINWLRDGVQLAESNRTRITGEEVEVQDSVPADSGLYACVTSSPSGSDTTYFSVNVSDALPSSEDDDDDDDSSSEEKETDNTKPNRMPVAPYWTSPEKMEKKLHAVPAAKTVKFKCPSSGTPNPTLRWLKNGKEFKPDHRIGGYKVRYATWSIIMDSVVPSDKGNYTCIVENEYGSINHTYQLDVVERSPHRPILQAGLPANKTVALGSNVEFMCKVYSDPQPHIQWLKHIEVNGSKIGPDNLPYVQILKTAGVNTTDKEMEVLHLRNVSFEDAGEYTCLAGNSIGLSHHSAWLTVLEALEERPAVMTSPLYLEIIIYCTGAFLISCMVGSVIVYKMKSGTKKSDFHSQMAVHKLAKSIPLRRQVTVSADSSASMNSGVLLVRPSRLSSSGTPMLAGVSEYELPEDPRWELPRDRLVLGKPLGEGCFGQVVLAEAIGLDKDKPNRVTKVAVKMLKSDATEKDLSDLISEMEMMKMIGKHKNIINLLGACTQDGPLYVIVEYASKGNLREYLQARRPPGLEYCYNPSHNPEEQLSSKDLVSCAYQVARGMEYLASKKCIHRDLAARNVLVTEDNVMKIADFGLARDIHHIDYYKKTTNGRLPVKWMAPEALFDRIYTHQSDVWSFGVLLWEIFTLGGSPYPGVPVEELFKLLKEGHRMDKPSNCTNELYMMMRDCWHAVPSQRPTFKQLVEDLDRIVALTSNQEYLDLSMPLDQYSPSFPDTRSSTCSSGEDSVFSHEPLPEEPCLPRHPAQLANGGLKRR
SRC, sequence (P12931 whole entry): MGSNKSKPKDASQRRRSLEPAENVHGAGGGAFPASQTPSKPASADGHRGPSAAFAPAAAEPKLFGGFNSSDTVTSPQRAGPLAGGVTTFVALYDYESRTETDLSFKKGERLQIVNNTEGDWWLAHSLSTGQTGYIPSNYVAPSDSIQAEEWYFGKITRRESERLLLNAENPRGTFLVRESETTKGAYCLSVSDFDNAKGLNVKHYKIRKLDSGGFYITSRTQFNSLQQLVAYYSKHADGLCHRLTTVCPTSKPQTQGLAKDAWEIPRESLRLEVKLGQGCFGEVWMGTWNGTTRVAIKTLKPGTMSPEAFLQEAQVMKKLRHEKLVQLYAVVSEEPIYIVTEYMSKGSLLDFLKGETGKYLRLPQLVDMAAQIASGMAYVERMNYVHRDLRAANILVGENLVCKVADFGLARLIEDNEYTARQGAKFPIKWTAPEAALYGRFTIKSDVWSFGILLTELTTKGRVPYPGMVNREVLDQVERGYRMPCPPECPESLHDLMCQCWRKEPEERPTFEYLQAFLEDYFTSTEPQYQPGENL

SMILES: Cc1nc(Nc2ncc(C(=O)Nc3c(C)cccc3Cl)s2)cc(N2CCN(CCO)CC2)n1 [dasatinib]
number of kinases inhibited (kinases): > 30 kinases

activity on SRC, in words (SRC): loss of binding
SMILES: C=CC(=O)Nc1ccccc1Nc1nc(Nc2ccc(N3CCC(N4CCN(C)CC4)CC3)cc2)ncc1C(=O)Nc1c(C)cccc1Cl [Compound 17c, 4-((2-Acrylamidophenyl)amino)-N-(2-chloro-6-methylphenyl)-2-((4-(4-(4-methylpiperazin-1-yl)piperidin-1-yl)phenyl)amino)-pyrimidine-5-carboxamide]

SMILES: COc1cc(Nc2c(C#N)cnc3cc(OCCCN4CCN(C)CC4)c(OC)cc23)c(Cl)cc1Cl [bosutinib]
number of kinases inhibited (kinases): > 45 kinases

activity on SRC, in words (SRC): complete loss of activity
activity on FGFR1, in words (FGFR1): complete loss of activity
SMILES: C=CC(=O)Nc1ccccc1Nc1nc(Nc2ccc(N3CCN(C)CC3)cc2)ncc1C(=O)Nc1ccc(Oc2ccccc2)cc1 [Compound 15i, 4-((2-Acrylamidophenyl)amino)-2-((4-(4-methylpiperazin-1-yl)-phenyl)amino)-N-(4-phenoxyphenyl)pyrimidine-5-carboxamide]

half-life [2]: 5.2 min
SMILES: C=CC(=O)Nc1ccccc1Nc1nc(Nc2ccc(N3CCN(C)CC3)cc2)ncc1C(=O)Nc1c(C)cccc1Cl [Compound 15a, 4-((2-Acrylamidophenyl)amino)-N-(2-chloro-6-methylphenyl)-2-((4-(4-methylpiperazin-1-yl)phenyl)amino)pyrimidine-5-carboxamide]
inhibition of p-SRC^Y416 in spleen (p-SRC^Y416 [1]): inhibition of p-SRC^Y416 at 2 and 4 h postdosing
cellular engagement of MEK1/2 or ERK1/2 (MEK1/2 and ERK1/2): did not engage
inhibition of p-SRC^Y416 signaling after washout (p-SRC^Y416 [3]): potent and sustained inhibition of p-SRC^Y416 signaling up to 4 h postwashout
inhibition of p-SRC^Y416 signaling (p-SRC^Y416 [4]): inhibited p-SRC^Y416 signaling

SMILES: CN1CCN(CCOc2cc(OC3CCOCC3)c3c(Nc4c(Cl)ccc5c4OCO5)ncnc3c2)CC1 [AZD0530]
growth inhibitory potency, in words [5]: weaker potency compared to 15a

loss of activity on FGFR1 compared to SM1–71 (FGFR1): 20 fold
SMILES: C=CC(=O)Nc1ccccc1Nc1nc(Nc2ccc(N3CCN(C)CC3)cc2)ncc1OCc1ccc(Oc2ccccc2)cc1 [Compound 10c, N-(2-((2-((4-(4-Methylpiperazin-1-yl)phenyl)amino)-5-((4-phenoxybenzyl)oxy)pyrimidin-4-yl)amino)phenyl)acrylamide]

SMILES: C=CC(=O)Nc1ccccc1Nc1nc(Nc2ccc(N3CCN(C)CC3)cc2)ncc1Cl [SM1–71]
selectivity score S(35) ([6]; specified percent inhibition 35%): 0.43
number of kinases hit [6]: more than 100 kinases
